According to the supplement of paper PMC10307832:

Assays:
Assay in all cases: relative viability (nuclei count vs DMSO), 5 days (fraction); higher = more cells survive
Venetoclax + Decitabine = compound: CC1(C)CCC(CN2CCN(c3ccc(C(=O)NS(=O)(=O)c4ccc(NCC5CCOCC5)c([N+](=O)[O-])c4)c(Oc4cnc5[nH]ccc5c4)c3)CC2)=C(c2ccc(Cl)cc2)C1 [Venetoclax] + Nc1ncn([C@H]2C[C@H](O)[C@@H](CO)O2)c(=O)n1 [Decitabine] (partner 2 µM)
Procedure, shortened: (§1)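 Relative viability divides the nuclei count in treated wells by that in vehicle wells. Lung cancer cell lines were seeded in 1536-well plates, dosed by pin tool the next day, and fixed and stained after 5 days in one step with final 0.05% Triton X-100, 1% formaldehyde and 1 ug/ml Hoechst. Dosing was a single drug or a fixed anchor-drug dose plus five library-drug doses (not always all listed) in √10 steps, and values are medians of duplicate plates imaged at 4×.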

Selumetinib + Decitabine = compound: Cn1cnc2c(F)c(Nc3ccc(Br)cc3Cl)c(C(=O)NOCCO)cc21 [Selumetinib] + Nc1ncn([C@H]2C[C@H](O)[C@@H](CO)O2)c(=O)n1 [Decitabine] (partner 2 µM)
Procedure, shortened: as §1

Venetoclax + Foretinib = compound: CC1(C)CCC(CN2CCN(c3ccc(C(=O)NS(=O)(=O)c4ccc(NCC5CCOCC5)c([N+](=O)[O-])c4)c(Oc4cnc5[nH]ccc5c4)c3)CC2)=C(c2ccc(Cl)cc2)C1 [Venetoclax] + COc1cc2c(Oc3ccc(NC(=O)C4(C(=O)Nc5ccc(F)cc5)CC4)cc3F)ccnc2cc1OCCCN1CCOCC1 [Foretinib] (partner 0.25 µM)
Procedure, shortened: as §1

Selumetinib + Navitoclax = compound: Cn1cnc2c(F)c(Nc3ccc(Br)cc3Cl)c(C(=O)NOCCO)cc21 [Selumetinib] + CC1(C)CCC(c2ccc(Cl)cc2)=C(CN2CCN(c3ccc(C(=O)NS(=O)(=O)c4ccc(N[C@H](CCN5CCOCC5)CSc5ccccc5)c(S(=O)(=O)C(F)(F)F)c4)cc3)CC2)C1 [Navitoclax] (partner 0.5 µM)
Procedure, shortened: as §1

Cell Line	relative viability (Venetoclax + Decitabine; first compound 0.01 µM)	relative viability (Venetoclax + Decitabine; first compound 0.03162 µM)	relative viability (Venetoclax + Decitabine; first compound 0.1 µM)	relative viability (Venetoclax + Decitabine; first compound 0.3162 µM)	relative viability (Venetoclax + Decitabine; first compound 1 µM)	relative viability (Selumetinib + Decitabine; first compound 0.02 µM)	relative viability (Selumetinib + Decitabine; first compound 0.06325 µM)	relative viability (Selumetinib + Decitabine; first compound 0.2 µM)	relative viability (Selumetinib + Decitabine; first compound 0.6325 µM)	relative viability (Venetoclax + Foretinib; first compound 0.01 µM)	relative viability (Venetoclax + Foretinib; first compound 0.03162 µM)	relative viability (Venetoclax + Foretinib; first compound 0.1 µM)	relative viability (Venetoclax + Foretinib; first compound 0.3162 µM)	relative viability (Venetoclax + Foretinib; first compound 1 µM)	relative viability (Selumetinib + Navitoclax; first compound 0.02 µM)	relative viability (Selumetinib + Navitoclax; first compound 0.06325 µM)	relative viability (Selumetinib + Navitoclax; first compound 0.2 µM)	relative viability (Selumetinib + Navitoclax; first compound 0.6325 µM)
NCI-H650	0.326	0.311	0.326	0.31	0.372	0.334	0.283	0.342	0.376	0.98	0.964	1.06	0.996	1.01	–	–	–	–
A-427	0.54	0.546	0.55	0.54	0.559	0.537	0.575	0.53	0.55	0.957	1.2	0.944	1.24	1.11	1.02	0.868	0.76	0.68
EMC-BAC-2	0.983	0.989	0.981	1.02	0.956	0.991	0.976	0.997	0.942	0.994	1.03	1.12	0.986	0.978	0.964	0.989	1.07	1.06
NCI-H520	0.526	0.506	–	0.557	0.458	0.551	0.493	0.523	0.606	0.628	0.708	0.711	0.949	0.727	1.08	1.1	1.12	1.07
LOU-NH91	0.76	0.808	0.816	0.821	0.778	0.782	0.777	0.723	0.751	0.895	0.969	0.97	0.94	0.911	0.631	0.607	0.514	0.556
HOP-62	0.182	0.203	0.199	0.216	0.218	0.164	0.278	0.238	0.232	1.07	1.16	0.997	1.08	1.03	1.01	0.997	0.929	0.517
NCI-H1563	–	–	–	–	–	–	–	–	–	0.922	0.968	0.961	1.05	0.94	–	–	–	–
NCI-H1792	0.522	0.506	0.468	0.502	0.463	0.635	0.486	0.52	0.425	–	–	–	–	–	0.741	0.641	0.522	0.533
HCC-15	0.519	0.699	0.611	0.611	0.543	0.556	0.449	0.438	0.392	0.998	1.02	0.96	0.931	0.825	0.507	0.397	0.32	0.199
HCC-366	0.354	0.368	0.327	0.366	0.382	0.353	0.36	0.315	0.309	0.86	1.04	0.872	0.963	0.974	1.11	0.954	0.917	0.757
LU99A	0.758	0.957	0.831	0.803	0.858	0.982	0.905	0.91	0.759	0.821	0.854	0.78	0.747	0.825	0.856	0.816	0.928	0.563
SW 1573	0.526	0.553	0.572	0.475	0.437	0.505	0.369	0.384	0.373	0.943	0.974	0.811	0.781	0.828	0.965	0.853	0.716	0.729
NCI-H1703	–	–	–	–	–	–	–	–	–	0.345	–	0.397	0.328	0.367	1.12	0.875	1.29	1.1
NCI-H2170	0.442	0.46	0.431	0.451	0.473	0.469	0.488	0.452	0.439	0.971	1.01	0.939	0.995	1	0.581	0.561	0.514	0.464
NCI-H2087	0.316	0.335	0.267	0.23	0.29	0.267	0.253	0.249	0.213	0.911	1.18	1.13	0.955	0.893	0.838	0.585	0.457	0.431
LCLC-103H	0.767	0.713	0.733	0.752	0.788	0.697	0.715	0.71	0.706	0.758	0.782	0.698	0.767	0.801	–	–	–	–
NCI-H1755	0.737	0.754	0.714	0.739	0.713	0.716	0.729	0.662	0.73	0.905	0.893	0.951	0.882	0.899	1.03	0.986	0.961	0.948
NCI-H1650	0.545	0.422	0.408	0.407	0.363	0.392	0.353	0.424	0.39	1.12	1.11	1.13	1.2	1.07	1	0.893	0.904	1.01
HARA	0.62	0.633	–	0.72	0.606	0.691	0.502	0.602	0.483	0.916	0.947	0.925	0.891	0.886	1.17	1.13	1.09	1.1
